Assays:
[1] = molecular target: human sodium channel Nav 1.7 (Homo sapiens (Human), UniProt Q15858); test: Automated whole-cell voltage-clamp (ScreenPatch 384P), Nav 1.7 sodium current, Protocol 2; type: cell-based; details: read-out: Nav1.7 IC50
Description: (§1) Biological assays were performed on Chinese hamster ovary (CHO) cells expressing the human sodium channels Nav 1.8 and Nav 1.7 stably.
(§2) The experimental voltage-clamp protocol using the whole cell configuration was established on the automated ScreenPatch® 384P platform (SP384PE, Nanion Technologies, Livingston, NJ) and recording of the results was performed with a Nanion 384-well Patch Clamp chip (NPC) (Nanion Technologies, Livingston, NJ).
(§3) Compounds of Formula (I), were diluted in eight concentrations in the extracellular solution composed of physiological saline, buffered with HEPES (mM): NaCl, 137; KCl, 4; CaCl2, 3.8; MgCl2, 1; HEPES, 10; Glucose, 10; pH 7.4. The […], 50; CsF, 90; MgCl2, 5; EGTA, 5; HEPES, 10; pH 7.2. The duration of exposure of each compound with the cells expressing Nav 1.7 or Nav 1.8 was at least five minutes and the assays were performed at room temperature.
(§4) The measurements of the sodium currents of Nav 1.8 and Nav 1.7 were obtained using the voltage protocols described below: • Protocol 1: A holding voltage of-90 mV was established followed by a voltage phase of 200 ms to-120 mV, followed by a voltage step of 10 mV for 1 second for Nav 1.8 or 0 mV for Nav 1.7, followed by a step of-100 mV for 20 ms, followed by a step of 20 ms for 10 mV for Nav 1.8 or 0 mV for Nav 1.7 (TP1A) before returning to the holding voltage of-90 mV. • Protocol 2: A holding voltage of-100 mV was established followed by an inactivation voltage step at −40 mV for 8 seconds, followed by a −100 mV step for 20 ms, followed by a 20 ms step for 10 mV for Nav 1.8 or 0 mV for Nav 1.7 (TP1A) before returning to the holding voltage of-100 mV.
(§5) Protocols were repeated at a frequency of 0.1 Hz (Protocol 1) or 0.05 Hz (Protocol 2) and current amplitude was quantified over the TP1A phase log. The variation in the peak amplitude of the current was evaluated according to the Formula described below, after exposure of the cells expressing the channels, at each concentration of the different compounds:
(§6) where ITP1A,basal, and ITP1A,molecule represent the entry peaks of sodium currents into TP1A prior to exposure to the compound and in the presence of the compound, respectively.
(§7) The decrease in peak current amplitude, after exposure of the cells to the compounds, was used to calculate the percent relative blocking of the channels relative to the positive control according to the Formula below: […]
(§8) where % V and % CP represent the averages of the values of current inhibition with a vehicle (DMSO) and positive controls, respectively. The sodium currents of the positive control were considered as 100%.
(§9) where [Test] represents the concentration of the evaluated molecule, IC50 is the concentration of the compound that generates half of the maximum inhibition, N is the Hill's coefficient and % Block′ is the percentage of the sodium channel current (Nav 1.8 and Nav 1.7) inhibited at each concentration of the evaluated molecule. Data were obtained by non linear least squares regression with XL fit for Excel (Microsoft, Redmond, WA).
(§10) Compounds were tested in at least one assay to obtain the IC50 value.

[2] = molecular target: human sodium channel Nav 1.8 (Homo sapiens (Human), UniProt Q9Y5Y9); test: Automated whole-cell voltage-clamp (ScreenPatch 384P), Nav 1.8 sodium current, Protocol 2; type: cell-based; details: read-out: Nav1.8 IC50
Description: as §1, §2, §3, §4, §5, §6, §7, §8, §9, §10

Chain of human sodium channel Nav 1.7 (Q15858 whole entry): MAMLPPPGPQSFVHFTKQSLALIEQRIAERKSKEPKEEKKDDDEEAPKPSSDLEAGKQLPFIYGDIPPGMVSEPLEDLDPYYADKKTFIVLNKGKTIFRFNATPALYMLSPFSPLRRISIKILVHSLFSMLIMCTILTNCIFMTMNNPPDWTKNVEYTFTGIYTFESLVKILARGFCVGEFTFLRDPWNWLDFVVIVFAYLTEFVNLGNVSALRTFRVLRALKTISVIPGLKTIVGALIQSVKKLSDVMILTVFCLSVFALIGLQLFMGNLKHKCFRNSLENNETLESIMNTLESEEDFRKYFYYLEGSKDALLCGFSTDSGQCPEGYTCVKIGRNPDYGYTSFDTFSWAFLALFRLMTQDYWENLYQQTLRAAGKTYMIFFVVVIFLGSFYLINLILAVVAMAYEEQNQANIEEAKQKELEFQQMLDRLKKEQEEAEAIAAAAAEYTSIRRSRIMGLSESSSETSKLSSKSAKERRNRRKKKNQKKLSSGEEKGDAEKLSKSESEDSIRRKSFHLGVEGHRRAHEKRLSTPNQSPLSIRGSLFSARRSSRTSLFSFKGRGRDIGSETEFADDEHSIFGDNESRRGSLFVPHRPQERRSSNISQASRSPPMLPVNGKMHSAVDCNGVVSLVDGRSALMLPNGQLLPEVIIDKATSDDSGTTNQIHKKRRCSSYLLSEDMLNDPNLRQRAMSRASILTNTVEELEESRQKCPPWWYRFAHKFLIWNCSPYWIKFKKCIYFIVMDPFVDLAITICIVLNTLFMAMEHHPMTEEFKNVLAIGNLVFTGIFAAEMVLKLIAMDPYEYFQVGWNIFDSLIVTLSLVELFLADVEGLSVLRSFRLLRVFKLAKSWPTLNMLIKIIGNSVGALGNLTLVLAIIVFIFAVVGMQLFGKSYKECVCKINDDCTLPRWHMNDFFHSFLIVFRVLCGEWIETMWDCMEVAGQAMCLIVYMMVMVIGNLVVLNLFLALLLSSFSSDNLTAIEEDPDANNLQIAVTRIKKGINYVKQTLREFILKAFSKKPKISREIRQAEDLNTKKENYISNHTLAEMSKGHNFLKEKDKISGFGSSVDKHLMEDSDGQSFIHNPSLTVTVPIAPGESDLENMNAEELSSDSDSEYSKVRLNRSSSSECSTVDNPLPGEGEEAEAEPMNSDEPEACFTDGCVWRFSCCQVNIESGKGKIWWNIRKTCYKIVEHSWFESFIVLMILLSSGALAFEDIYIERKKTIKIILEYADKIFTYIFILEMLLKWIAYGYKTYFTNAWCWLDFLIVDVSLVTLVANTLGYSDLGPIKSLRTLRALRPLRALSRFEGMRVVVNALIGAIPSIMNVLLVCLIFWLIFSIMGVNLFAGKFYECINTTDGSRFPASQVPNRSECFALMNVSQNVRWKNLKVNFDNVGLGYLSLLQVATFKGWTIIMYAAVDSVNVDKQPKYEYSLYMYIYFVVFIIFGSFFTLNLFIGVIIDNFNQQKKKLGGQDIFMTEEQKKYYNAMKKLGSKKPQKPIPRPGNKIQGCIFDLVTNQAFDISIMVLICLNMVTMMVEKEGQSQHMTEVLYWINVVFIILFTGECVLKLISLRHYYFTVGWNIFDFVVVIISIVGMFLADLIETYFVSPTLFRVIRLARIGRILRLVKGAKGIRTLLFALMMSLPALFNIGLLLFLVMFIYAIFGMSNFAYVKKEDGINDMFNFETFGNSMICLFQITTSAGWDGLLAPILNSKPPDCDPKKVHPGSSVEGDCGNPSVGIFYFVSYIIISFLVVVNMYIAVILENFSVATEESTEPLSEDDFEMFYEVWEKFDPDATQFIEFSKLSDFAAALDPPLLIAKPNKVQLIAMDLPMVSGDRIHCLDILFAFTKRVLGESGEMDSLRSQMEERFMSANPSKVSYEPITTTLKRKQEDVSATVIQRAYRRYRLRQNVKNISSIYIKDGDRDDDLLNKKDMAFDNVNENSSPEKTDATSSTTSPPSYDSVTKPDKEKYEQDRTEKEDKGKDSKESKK
Chain of human sodium channel Nav 1.8 (Q9Y5Y9 whole entry): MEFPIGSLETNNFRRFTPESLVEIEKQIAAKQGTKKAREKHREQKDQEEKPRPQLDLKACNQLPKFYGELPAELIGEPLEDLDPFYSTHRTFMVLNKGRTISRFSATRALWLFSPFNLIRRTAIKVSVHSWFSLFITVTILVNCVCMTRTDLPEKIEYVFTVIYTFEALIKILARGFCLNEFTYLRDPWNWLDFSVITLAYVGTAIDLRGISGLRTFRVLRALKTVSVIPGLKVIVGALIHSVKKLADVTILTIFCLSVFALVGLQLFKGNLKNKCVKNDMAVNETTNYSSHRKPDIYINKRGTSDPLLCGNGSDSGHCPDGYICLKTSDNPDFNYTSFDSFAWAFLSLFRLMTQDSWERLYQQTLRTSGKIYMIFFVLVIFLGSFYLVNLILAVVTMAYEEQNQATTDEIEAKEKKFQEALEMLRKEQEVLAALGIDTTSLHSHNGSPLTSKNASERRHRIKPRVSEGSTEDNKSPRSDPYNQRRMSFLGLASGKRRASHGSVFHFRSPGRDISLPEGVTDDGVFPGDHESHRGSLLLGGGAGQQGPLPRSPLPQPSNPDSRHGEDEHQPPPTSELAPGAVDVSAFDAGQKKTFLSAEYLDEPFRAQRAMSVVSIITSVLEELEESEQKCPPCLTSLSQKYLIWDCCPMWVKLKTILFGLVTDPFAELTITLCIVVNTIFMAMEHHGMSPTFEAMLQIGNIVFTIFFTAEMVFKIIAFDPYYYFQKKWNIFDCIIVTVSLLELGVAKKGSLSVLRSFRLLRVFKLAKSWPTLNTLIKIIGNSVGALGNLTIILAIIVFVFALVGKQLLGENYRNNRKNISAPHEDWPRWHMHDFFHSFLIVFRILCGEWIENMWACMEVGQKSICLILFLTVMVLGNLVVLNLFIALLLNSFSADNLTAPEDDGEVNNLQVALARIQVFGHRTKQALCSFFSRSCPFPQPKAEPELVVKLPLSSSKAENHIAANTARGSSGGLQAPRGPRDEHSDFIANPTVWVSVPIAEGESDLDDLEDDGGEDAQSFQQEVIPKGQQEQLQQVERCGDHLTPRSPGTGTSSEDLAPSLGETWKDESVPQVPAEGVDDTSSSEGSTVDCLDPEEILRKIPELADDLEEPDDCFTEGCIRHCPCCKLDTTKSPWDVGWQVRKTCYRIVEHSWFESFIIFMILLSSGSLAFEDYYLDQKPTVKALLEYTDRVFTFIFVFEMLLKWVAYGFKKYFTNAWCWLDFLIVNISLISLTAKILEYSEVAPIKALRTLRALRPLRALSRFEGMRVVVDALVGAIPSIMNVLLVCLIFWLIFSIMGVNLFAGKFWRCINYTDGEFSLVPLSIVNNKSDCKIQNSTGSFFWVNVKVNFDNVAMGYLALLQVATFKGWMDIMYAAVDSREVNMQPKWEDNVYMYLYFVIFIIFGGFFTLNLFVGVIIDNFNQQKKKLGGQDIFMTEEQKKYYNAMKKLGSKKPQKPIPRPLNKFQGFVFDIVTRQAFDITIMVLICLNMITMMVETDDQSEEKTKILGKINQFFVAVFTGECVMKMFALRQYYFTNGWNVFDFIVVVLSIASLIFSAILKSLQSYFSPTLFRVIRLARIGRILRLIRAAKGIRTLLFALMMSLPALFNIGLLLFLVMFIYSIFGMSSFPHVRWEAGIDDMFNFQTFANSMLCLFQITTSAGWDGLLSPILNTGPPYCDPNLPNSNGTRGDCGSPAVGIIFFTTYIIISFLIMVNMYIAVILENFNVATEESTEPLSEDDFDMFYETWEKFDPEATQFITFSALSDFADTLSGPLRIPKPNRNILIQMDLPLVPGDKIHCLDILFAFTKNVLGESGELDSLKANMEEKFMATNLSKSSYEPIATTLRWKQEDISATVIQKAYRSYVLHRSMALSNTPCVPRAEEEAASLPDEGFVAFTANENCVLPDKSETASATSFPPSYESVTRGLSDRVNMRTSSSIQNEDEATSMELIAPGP

Row | Compound | IC50 [1] [µM] | IC50 [2] [µM]
1 | COc1cc(/C=N/NC(=O)c2cncc(-c3ccc(Cl)cc3)n2)cc(OC)c1 [Compound 1, 6-(4-chlorophenyl)-N′-[(E)-(3,5-dimethoxyphenyl)methylidene]pyrazine-2-carbohydrazide] | > 1 | > 1
2 | CCOc1ccc(-c2cncc(C(=O)N/N=C/c3cc(OC)cc(OC)c3)n2)cc1 [Compound 2, (E)-N′-(3,5-dimethoxybenzylidene)-6-(4-ethoxyphenyl)pyrazine-2-carbohydrazide] | 0.239 | 0.0325
3 | CCOc1ccc(-c2cncc(C(=O)N/N=C/c3cc(OC)ccc3OC)n2)cc1 [Compound 3, (E)-N′-(2,5-dimethoxybenzylidene)-6-(4-ethoxyphenyl)pyrazine-2-carbohydrazide] | 0.855 | 0.152
4 | CCOc1ccc(-c2cncc(C(=O)N/N=C/c3cc(OC)cc4ocnc34)n2)cc1 [Compound 6, (E)-6-(4-ethoxyphenyl)-N′-((6-methoxybenzo[d]oxazol-4-yl)methylene)pyrazine-2-carbohydrazide] | > 0.3 | > 0.3
5 | CCOc1ccc(-c2cncc(C(=O)N/N=C/c3ccnc(OC)c3)n2)cc1 [Compound 10, (E)-6-(4-ethoxyphenyl)-N′-((2-methoxypyridin-4-yl)methylene)pyrazine-2-carbohydrazide] | > 0.3 | > 0.3
6 | CCOc1ccc(-c2cncc(C(=O)N/N=C/c3cc(OC)cc(OC)c3OC)n2)cc1 [Compound 13, (E)-6-(4-ethoxyphenyl)-N′-(2,3,5-trimethoxybenzylidene)pyrazine-2-carbohydrazide] | 0.189 | 0.073
7 | CCOc1ccc(-c2cncc(C(=O)N/N=C/c3cc(OC)cc(OC)c3OCC)n2)cc1 [Compound 14, (E)-N′-(2-ethoxy-3,5-dimethoxybenzylidene)-6-(4-ethoxyphenyl)pyrazine-2-carbohydrazide] | 0.308 | 0.156
8 | CCOc1ccc(-c2cncc(C(=O)N/N=C/c3cc(F)cc(OC)c3)n2)cc1 [Compound 15, (E)-6-(4-ethoxyphenyl)-N′-(3-fluoro-5-methoxybenzylidene)pyrazine-2-carbohydrazide] | 0.243 | 0.0252
9 | CCCOc1cc(/C=N/NC(=O)c2cncc(-c3ccc(OCC)cc3)n2)cc(OC)c1 [Compound 16, (E)-6-(4-ethoxyphenyl)-N′-(3-methoxy-5-propoxybenzylidene)pyrazine-2-carbohydrazide] | 0.224 | 0.0933
10 | CCOc1ccc(-c2cncc(C(=O)N/N=C/c3cc(OC)c(F)c(OC)c3)n2)cc1 [Compound 17, (E)-6-(4-ethoxyphenyl)-N′-(4-fluoro-3,5-dimethoxybenzylidene)pyrazine-2-carbohydrazide] | 7.86 | 0.232
11 | CCOc1ccc(-c2cncc(C(=O)N/N=C/c3cc(OC)ccc3Cl)n2)cc1 [Compound 18, (E)-N′-(2-chloro-5-methoxybenzylidene)-6-(4-ethoxyphenyl)pyrazine-2-carbohydrazide] | 0.237 | 0.0626
12 | CCOc1ccc(-c2cncc(C(=O)N/N=C/c3cccc(OC)c3Cl)n2)cc1 [Compound 19, (E)-N′-(2-chloro-3-methoxybenzylidene)-6-(4-ethoxyphenyl)pyrazine-2-carbohydrazide] | 0.575 | 0.0935
13 | CCOc1ccc(-c2cncc(C(=O)N/N=C/c3cc(OC)ccc3F)n2)cc1 [Compound 20, (E)-6-(4-ethoxyphenyl)-N′-(2-fluoro-5-methoxybenzylidene)pyrazine-2-carbohydrazide] | 0.228 | 0.0133
14 | CCOc1ccc(-c2cncc(C(=O)N/N=C/c3cccc(OC)c3F)n2)cc1 [Compound 21, (E)-6-(4-ethoxyphenyl)-N′-(2-fluoro-3-methoxybenzylidene)pyrazine-2-carbohydrazide] | 0.268 | 0.0745
15 | CCOc1ccc(-c2cncc(C(=O)N/N=C/c3cccc(OC)c3)n2)cc1 [Compound 22, (E)-6-(4-ethoxyphenyl)-N′-(3-methoxybenzylidene)pyrazine-2-carbohydrazide] | 0.228 | 0.0272
16 | CCOc1ccc(-c2cncc(C(=O)N/N=C/c3ccccc3OC)n2)cc1 [Compound 26, (E)-6-(4-ethoxyphenyl)-N′-(2-methoxybenzylidene)pyrazine-2-carbohydrazide] | 0.322 | 0.0249
17 | CCOc1ccc(-c2cncc(C(=O)N/N=C/c3cccc(OC)c3OC)n2)cc1 [Compound 27, (E)-N′-(2,3-dimethoxybenzylidene)-6-(4-ethoxyphenyl)pyrazine-2-carbohydrazide] | 0.233 | 0.221
18 | COc1cc(/C=N/NC(=O)c2cncc(-c3ccc(OC(C)C)cc3)n2)cc(OC)c1 [Compound 29, (E)-N′-(3,5-dimethoxybenzylidene)-6-(4-isopropoxyphenyl)pyrazine-2-carbohydrazide] | 0.0631 | 0.0513
19 | COc1cc(/C=N/NC(=O)c2cncc(-c3ccc(OC4CCCC4)cc3)n2)cc(OC)c1 [Compound 30, 6-[4-(cyclopentyloxy)phenyl]-N′-[(E)-(3,5-dimethoxyphenyl)methylidene]pyrazine-2-carbohydrazide] | 0.0556 | 0.102
20 | COc1cc(/C=N/NC(=O)c2cncc(-c3ccc(OC(F)(F)F)cc3)n2)cc(OC)c1 [Compound 31, N′-[(E)-(3,5-dimethoxyphenyl)methylidene]-6-[4-(trifluoromethoxy)phenyl]pyrazine-2-carbohydrazide] | > 10 | 0.132
21 | CCCOc1ccc(-c2cncc(C(=O)N/N=C/c3cc(OC)cc(OC)c3)n2)cc1 [Compound 32, N′-[(E)-(3,5-dimethoxyphenyl)methylidene]-6-(4-propoxyphenyl)pyrazine-2-carbohydrazide] | 0.21 | 0.0739
22 | COc1ccc(-c2cncc(C(=O)N/N=C/c3cc[nH]c(=O)c3)n2)cc1 [Compound 34, (E)-6-(4-methoxyphenyl)-N′-((2-oxo-1,2-dihydropyridin-4-yl)methylene)pyrazine-2-carbohydrazide] | > 10 | > 1
23 | COc1ccc(-c2cncc(C(=O)N/N=C/c3ccc(F)c(C(N)=O)c3)n2)cc1 [Compound 35, (E)-2-fluoro-5-((2-(6-(4-methoxyphenyl)pyrazine-2-carbonyl)hydrazono)methyl)benzamide] | > 10 | > 1
24 | COc1ccc(-c2cncc(C(=O)N/N=C/c3ccnc(C(N)=O)c3)n2)cc1 [Compound 36, (E)-4-((2-(6-(4-methoxyphenyl)pyrazine-2-carobnyl)hydrazono)methyl)picolinamide] | > 10 | > 1
25 | COc1ccc(-c2cncc(C(=O)N/N=C/c3cccc(OC)c3)n2)cc1 [Compound 37, (E)-N′-(3-methoxybenzylidene)-6-(4-methoxyphenyl)pyrazine-2-carbohydrazide] | 1.57 | 0.115
26 | COc1ccc(-c2cncc(C(=O)N/N=C/c3cccc(CN(C)C)c3)n2)cc1 [Compound 38, (E)-N′-(3-((dimethylamino)methyl)benzylidene)-6-(4-methoxyphenyl)pyrazine-2-carbohydrazide] | > 10 | > 1
27 | CCCOc1cccc(/C=N/NC(=O)c2cncc(-c3ccc(OC)cc3)n2)c1 [Compound 40, (E)-6-(4-methoxyphenyl)-N′-(3-propoxybenzylidene)pyrazine-2-carbohydrazide] | 3.36 | 0.277
28 | COc1ccc(-c2cncc(C(=O)N/N=C/c3cccc(OC(C)C)c3)n2)cc1 [Compound 41, (E)-N′-(3-isopropoxybenzylidene)-6-(4-methoxyphenyl)pyrazine-2-carbohydrazide] | 3.29 | 0.0945
29 | COc1ccc(-c2cncc(C(=O)N/N=C/c3ccccc3OC)n2)cc1 [Compound 42, (E)-N′-(2-methoxybenzylidene)-6-(4-methoxyphenyl)pyrazine-2-carbohydrazide] | 3.9 | 0.621

— patent US20240335442A1 (Eurofarma Laboratórios S.A., priority 2021, published 2024)
